# Measured values reported in patent publication US20100316743A1, “INHIBITION OF THE FORMATION OF AGEs” (BASF BEAUTY CARE SOLUTIONS FRANCE S.A.S., priority 2007, published 2010).
# Target: bovine serum albumin (BSA) (Bos taurus, UniProt P02769)
# Test: Inhibition of the formation of AGEs in a BSA/reducing sugar solution, measured by fluorescence
# Assay type: biochemical
# Conditions: Example 4, comparison with anthocyanins of the prior art; fluorescence versus positive control 1.5 mM aminoguanidine; quenching taken into account
# Experimental: The preparation of a solution containing a protein and a reducing sugar was carried out extemporaneously as follows: a solution of bovine serum albumin (BSA) at a concentration between 1.5 μM and 1.5M, preferably between 15 μM and 500 μM, was incubated with a solution of a reducing sugar such as glucose, fructose, ribose, etc., preferably with glucose, at a concentration between 0.1M and 10M, preferably between 0.5M and 5M. […]
# The protein/reducing sugar solution prepared in 1 was incubated with or without (negative control) the presence of an extract obtained in 2, at a temperature between 40 and 60° C., preferably at around 50° C. for 1 to 5 weeks, preferably for 3 weeks. The active substances obtained by extraction according to the protocol described in paragraph 2—extracts were tested at a concentration between 0.001 and 10%, preferably between 0.01 and 5% and more particularly at 1% by weight in the protein/reducing sugar preparation. The positive control used was aminoguanidine at a concentration between 15 μM and 150 mM, preferably at a concentration between 1.5 mM and 15 mM in water. The measure of the inhibition of the AGEs was carried out by measuring the fluorescence (excitation wavelength between 350 and 375 nm, preferably at 355 nm; emission wavelength between 420 and 450 nm, preferably at 430 nm). The inhibition was calculated by deducing the resulting value of the interaction of the plant extracts with the molecules of the reaction medium (quenching).
# The preparation of a protein/reducing sugar solution was carried out according to the method described in Example 1 (paragraph 1). The molecules were tested at a concentration between 1×10^−7 and 1×10^−1%, and preferably between 1×10^−5 and 1×10^−1%, and in particular at 1×10^−1%, for example in water or in DMSO.
# Sequence of bovine serum albumin (BSA) (P02769 25-607): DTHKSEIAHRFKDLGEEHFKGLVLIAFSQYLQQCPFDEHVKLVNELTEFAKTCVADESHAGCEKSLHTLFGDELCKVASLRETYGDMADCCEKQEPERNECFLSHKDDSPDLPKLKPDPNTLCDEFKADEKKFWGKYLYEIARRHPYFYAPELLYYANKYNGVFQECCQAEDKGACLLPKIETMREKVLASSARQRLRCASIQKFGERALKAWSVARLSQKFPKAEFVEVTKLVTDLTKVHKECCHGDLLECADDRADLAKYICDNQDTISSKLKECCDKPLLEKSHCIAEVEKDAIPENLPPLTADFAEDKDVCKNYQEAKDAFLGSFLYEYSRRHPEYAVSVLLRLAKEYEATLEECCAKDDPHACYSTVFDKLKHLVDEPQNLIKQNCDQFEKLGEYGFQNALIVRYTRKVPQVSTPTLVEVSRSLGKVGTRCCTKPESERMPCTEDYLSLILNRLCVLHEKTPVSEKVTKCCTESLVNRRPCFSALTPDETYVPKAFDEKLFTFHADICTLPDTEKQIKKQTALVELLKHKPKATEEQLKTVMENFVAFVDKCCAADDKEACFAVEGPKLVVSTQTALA
row,% inhibition [%],Structure (SMILES)
1,0,"OC[C@H]1O[C@@H](Oc2cc3c(O)cc(O)cc3[o+]c2-c2ccc(O)c(O)c2)[C@H](O)[C@@H](O)[C@H]1O.[Cl-] [Idaein chloride, reference compound]"
2,0,"OC[C@H]1O[C@@H](Oc2cc3c(O)cc(O)cc3[o+]c2-c2ccc(O)c(O)c2)[C@H](O)[C@@H](O)[C@@H]1O.[Cl-] [Kuromanin Chloride, reference compound]"

# More lines, now with the values behind:
row,Structure (SMILES),% inhibition [%]
1,"COc1cc(-c2[o+]c3cc(O)cc(O[C@@H]4O[C@H](CO)[C@@H](O)[C@H](O)[C@H]4O)c3cc2O[C@@H]2O[C@H](CO)[C@@H](O)[C@H](O)[C@H]2O)cc(OC)c1O.[Cl-] [Malvin Chloride, reference compound]",0
2,"OC[C@H]1O[C@@H](Oc2cc3c(O[C@@H]4O[C@H](CO)[C@@H](O)[C@H](O)[C@H]4O)cc(O)cc3[o+]c2-c2ccc(O)cc2)[C@H](O)[C@@H](O)[C@@H]1O.[Cl-] [Perlargonin chloride, reference compound]",0

# Same assay, conditions: characterized molecules, in particular at 1×10^−1% in water or DMSO; BSA/reducing sugar; fluorescence versus positive control 1.5 mM aminoguanidine
row,% inhibition [%],Structure (SMILES)
1,89.6,"O=C1C=CC(=O)c2cc3ccccc3cc21 [1,4-Anthraquinone]"
2,66.0,Nc1c(CO)ccc2c1C(=O)c1ccccc1C2=O [1-Amino-2-hydroxymethylanthraquinone]
3,81.4,O=C(/C=C/c1ccc(O)cc1)c1ccccc1 [4-Hydroxychalcone]
4,88.3,Oc1ccccc1O [Catechol]
5,67.9,O=C1C[C@@H](c2ccc(O)cc2)Oc2cc(O[C@@H]3O[C@H](CO)[C@@H](O)[C@H](O)[C@H]3O)cc(O)c21 [Prunin]

# Continued, compound first:
row,Structure (SMILES),% inhibition [%]
1,Nc1ccc(O)cc1 [4-Aminophenol],78.5
2,O=C([O-])c1ccccc1-c1c2cc(I)c(=O)c(I)c-2oc2c(I)c([O-])c(I)cc12.[Na+].[Na+] [Sodium erythrosine],95.6

# Tested on: not given
# Test: not given
# Conditions: kidneys; cited from earlier work
row,Structure (SMILES),reduction of the excretion of albumin in diabetics [%]
1,N=C(N)NN [Aminoguanidine],90
